From patent publication US10716770B2, “Nicotinic receptor non-competitive antagonists” (Catalyst Biosciences, Inc., priority 2010, dated 2020) come the findings set out here.

Structures are written as SMILES. Where two headings read alike, the source gives them in different places.

Experiment [1] deals with T1, human α4β2 (Homo sapiens, UniProt P17787+P43681).
T1 construct: host or cells: SH-EP1
The experiment is described as follows: Competition binding to human α4β2 nicotinic receptors in membrane preparations ([3H]-nicotine). Conditions: [3H]-nicotine competition, membranes.

Experiment [2] deals with T1, human α4β2. The experiment is described as follows: Calcium flux functional assay, inhibition of nicotine response in SH-EP1-human α4β2 cells. It is filed as cell-based. Conditions: nicotine 1 μM. The method, then:
(§1) SH-EP1-human α4β2 (Eaton et al., 2003), SH-EP1-human α4β4 (Gentry et al., 2003) and SH-EP1-α6β3β4α5 (Grinevich at al., 2005) cell lines were obtained from Dr. Ron Lukas (Barrow Neurological Institute). The SH-EP1 cell lines, PC12, SH-SY5Y and TE671/RD cells were maintained in proliferative growth phase in Dulbecco's modified Eagle's medium (Invitrogen, Carlsbad, Calif.) with 10% horse serum (Invitrogen), 5% fetal bovine serum (HyClone, Logan Utah), 1 mM sodium pyruvate, 4 mM L-glutamine. For maintenance of stable transfectants, the α4β2 and α4β4 cell media was supplemented with 0.25 mg/mL zeocin and 0.13 mg/mL hygromycin B. Selection was maintained for the α6β3β4α5 cells with 0.25 mg/mL of zeocin, 0.13 mg/mL of hygromycin B, 0.4 mg/mL of geneticin, and 0.2 mg/mL of blasticidin.
(§2) Twenty-four to forty-eight hours prior to each experiment, cells were plated in 96 well black-walled, clear bottom plates (Corning, Corning, N.Y.) at 60-100,000 cells/well. On the day of the experiment, growth medium was gently removed, 200 μL 1×FLIPR Calcium 4 Assay reagent (Molecular Devices, Sunnyvale, Calif.) in assay buffer (20 mM HEPES, 7 mM TRIS base, 4 mM CaCl2, 5 mM D-glucose, 0.8 mM MgSO4, 5 mM KCl, 0.8 mM MgCl2, 120 mM N-methyl D-glucamine, 20 mM NaCl, pH 7.4 for SH-EP1-human α4β2 cells or 10 mM HEPES, 2.5 mM CaCl2, 5.6 mM D-glucose, 0.8 mM MgSO4, 5.3 mM KCl, 138 mM NaCl, pH 7.4 with TRIS-base for all other cell lines) was added to each well and plates were incubated at 37° C. for 1 hour (29° C. for the 29° C.-treated SH-EP1-human α4β2 cells). For inhibition studies, competitor compound (10 pM-10 μM) was added at the time of dye addition. The plates were removed from the incubator and allowed to equilibrate to room temperature. Plates were transferred to a FLIPR Tetra fluorometric imaging plate reader (Molecular Devices) for addition of compound and monitoring of fluorescence (excitation 485 nm, emission 525 nm). The amount of calcium flux was compared to both a positive (nicotine) and negative control (buffer alone). The positive control was defined as 100% response and the results of the test compounds were expressed as a percentage of the positive control. For inhibition studies, the agonist nicotine was used at concentrations of 1 μM for SH-EP1-human α4β2 and SH-EP1-human α4β4 cells, 10 μM for PC12 and SH-SY5Y cells, and 100 μM for TE671/RD cells.
(Calcium flux is commonly read through the fluorescence of an indicator in the cells.)

Another experiment addresses T2, Human Ganglion (Homo sapiens, UniProt P30926+P32297).
T2 construct: Human Ganglion Ca Flux IC50; Human Ganglion Ca Flux Imax
The experiment is described as follows: Calcium flux functional assay, inhibition of nicotine response at human ganglionic receptor subtype. As to conditions: read-out: Human Ganglion Ca Flux Imax. It is filed as cell-based. The method, then: as §1, §2

The mark [3] stands for this setting: 29C/HS (29° C.-treated SH-EP1-human α4β2 cells), read-out: Human α4β2 Ca Flux IC50 [29C/HS].
Where [4] appears, read: 29C/HS (29° C.-treated SH-EP1-human α4β2 cells), read-out: Human α4β2 Ca Flux Imax [29C/HS].
Setting [5] is: 37C/LS, read-out: Human α4β2 Ca Flux IC50 [37C/LS].
Setting [6] is: 37C/LS, read-out: Human α4β2 Ca Flux Imax [37C/LS].
[7] abbreviates: 29C/HS (29° C.-treated SH-EP1-human α4β2 cells).

By Ki is commonly meant a dissociation constant, usually derived from enzyme kinetics or from competition with a known ligand. As for `CN(C)C1C2CCC(C2)C12CCC2` (stereo not drawn), the Ki at human α4β2 [1] (read-out: Human α4β2 Ki) worked out at 2.6 µM. Further, the IC50 at human α4β2 [2] (setting [3]) stood at 1800 nM; at human α4β2 [2] (setting [5]), 620 nM. In addition, the Emax at human α4β2 [2] (setting [4]), at human α4β2 [2] (setting [6]) and at Human Ganglion was 98% in each case.
As to `CN[C@@]1(C)[C@@H]2CC[C@@H](C2)C12CCC2` (racemic), the Ki at human α4β2 [1] (read-out: Human α4β2 Ki) was found to be 8.7 µM. For the same compound, the Emax on human α4β2 [2] (setting [4]) is 98%; at human α4β2 [2] (setting [6]), 95%; on Human Ganglion it was 93%.
For `CNC1(C)C2CCC(C2)C12CC2` (stereo not drawn), the Ki on human α4β2 [1] (read-out: Human α4β2 Ki) was above 10 µM. Also, the IC50 at human α4β2 [2] (setting [3]) amounted to 380 nM; on human α4β2 [2] (setting [5]), 120 nM. For the same compound, the results for the Emax at human α4β2 [2] (setting [4]), at human α4β2 [2] (setting [6]) and on Human Ganglion were 97%, 93% and 98%, respectively.
For the compound `CN[C@@]1(C)[C@@H]2CC[C@@H](C2)C12CCC2` (single isomer, unassigned) [drawing 29], the Ki on human α4β2 [1] (read-out: Human α4β2 Ki) is above 10 µM. Besides, the “Human α4β2 Ca Flux Imax [29C/HS]” value on human α4β2 [2] (setting [7]) was 98 % inh. The “Human α4β2 Ca Flux Imax [37C/LS]” value on human α4β2 [2] (37C/LS) worked out at 96 % inh.
In the case of `C1CN(C2C3CCC(C3)C23CCC3)C1` (stereo not drawn), the IC50 on human α4β2 [2] (setting [3]) amounted to 1400 nM; on human α4β2 [2] (setting [5]), 740 nM. In addition, the Emax at human α4β2 [2] (setting [4]) turned out to be 96%; on human α4β2 [2] (setting [6]), 98%; on Human Ganglion, 89%.
Consider `C1CCN(C2C3CCC(C3)C23CCC3)C1` (stereo not drawn), for which the Ki on human α4β2 [1] (read-out: Human α4β2 Ki) was determined as 3.8 µM. Further, the IC50 amounted to 1400 nM on human α4β2 [2] (setting [3]) and 59 nM at human α4β2 [2] (Human α4β2 Ca Flux IC50 [37C/LS], 37C/LS). Besides, the results for the Emax at human α4β2 [2] (setting [4]), on human α4β2 [2] (setting [6]) and on Human Ganglion were 90%, 96% and 79%, respectively.
`CN(C)C1C2(CCC2)[C@H]2CC[C@]1(C)C2(C)C` (stereo partly drawn) [drawing 35]: on human α4β2 [1] (read-out: Human α4β2 Ki), the Ki was above 10 µM. Also, the IC50 turned out to be 540 nM on human α4β2 [2] (setting [3]) and 520 nM on human α4β2 [2] (setting [5]). The Emax on human α4β2 [2] (setting [4]) was 96%; on human α4β2 [2] (setting [6]) it was 97%; on Human Ganglion, 98%.
Take `CNC1C2(CCC2)[C@@H]2CC[C@@]1(C)C2(C)C` (stereo partly drawn) [drawing 33]: on human α4β2 [1] (read-out: Human α4β2 Ki), the inhibitory constant (Ki) is above 10 µM. Further, the IC50 is 1000 nM on human α4β2 [2] (setting [3]) and 600 nM at human α4β2 [2] (setting [5]). Moreover, the results for the Emax on human α4β2 [2] (setting [4]), on human α4β2 [2] (setting [6]) and on Human Ganglion were 97%, 95% and 95%, respectively.
Consider `CNC1C2(CCC2)[C@H]2CC[C@]1(C)C2(C)C` (stereo partly drawn) [drawing 31], for which the Ki at human α4β2 [1] (read-out: Human α4β2 Ki) is above 10 µM. Moreover, the IC50 on human α4β2 [2] (setting [3]) came out at 1300 nM; on human α4β2 [2] (setting [5]) it was 498 nM. Also, the Emax at human α4β2 [2] (setting [4]) was 99%; at human α4β2 [2] (setting [6]) it was 96%; at Human Ganglion, 97%.
`CNC1C2CCC(C2)C12CC2` (stereo not drawn): the affinity at human α4β2 [1] (Human α4β2 Ki), expressed as Ki, was 0.54 µM. Moreover, the figures for the IC50 on human α4β2 [2] (setting [3]) and at human α4β2 [2] (setting [5]) were 2100 nM and 570 nM, respectively. The Emax at human α4β2 [2] (setting [4]) is 97%; at human α4β2 [2] (setting [6]), 93%; on Human Ganglion, 93%.
Turning to `CNC1C2(CCC2)[C@@H]2CC[C@@]1(C)C2(C)C` (stereo partly drawn) [drawing 34], the Ki at human α4β2 [1] (read-out: Human α4β2 Ki) is above 10 µM. Besides, at human α4β2 [2] (setting [7]), the “Human α4β2 Ca Flux Imax [29C/HS]” value is 97 % inh. Besides, the IC50 turned out to be 310 nM at human α4β2 [2] (setting [3]) and 270 nM at human α4β2 [2] (setting [5]). Besides, the “Human α4β2 Ca Flux Imax [37C/LS]” value on human α4β2 [2] (37C/LS) stood at 93 % inh.
With `CN(C)C1C2(CCC2)[C@H]2CC[C@]1(C)C2(C)C` (stereo partly drawn) [drawing 36], the Ki on human α4β2 [1] (read-out: Human α4β2 Ki) was above 10 µM. Moreover, the “Human α4β2 Ca Flux Imax [29C/HS]” value on human α4β2 [2] (setting [7]) worked out at 96 % inh. The IC50 at human α4β2 [2] (setting [3]) turned out to be 140 nM; on human α4β2 [2] (setting [5]), 350 nM. Besides, the “Human α4β2 Ca Flux Imax [37C/LS]” value on human α4β2 [2] (37C/LS) was 95 % inh.
On the same counts, the results for `CNC1C2(CCC2)[C@H]2CC[C@]1(C)C2(C)C` (stereo partly drawn) [drawing 32] are 5.6 µM, 98 % inh, 710 nM, 430 nM and 96 % inh.
As for `CN[C@@]1(C)[C@@H]2CC[C@@H](C2)C12CCC2` (single isomer, unassigned) [drawing 30], the inhibition constant (Ki) on human α4β2 [1] (read-out: Human α4β2 Ki) is above 10 µM. At human α4β2 [2] (setting [7]), the “Human α4β2 Ca Flux Imax [29C/HS]” value is on record as 98 % inh. The “Human α4β2 Ca Flux Imax [37C/LS]” value at human α4β2 [2] (37C/LS) is 94 % inh.
Turning to `CN(C)C1C2(CCC2)[C@@H]2CC[C@@]1(C)C2(C)C` (stereo partly drawn) [drawing 38], the Ki on human α4β2 [1] (read-out: Human α4β2 Ki) is 2.6 µM. Also, the “Human α4β2 Ca Flux Imax [29C/HS]” value at human α4β2 [2] (setting [7]) is 95 % inh. The IC50 was determined as 740 nM at human α4β2 [2] (setting [3]) and 380 nM at human α4β2 [2] (setting [5]). Also, the “Human α4β2 Ca Flux Imax [37C/LS]” value at human α4β2 [2] (37C/LS) is 95 % inh.
For the compound `CN(C)C1C2(CCC2)[C@@H]2CC[C@@]1(C)C2(C)C` (stereo partly drawn) [drawing 37], the inhibitory constant (Ki) on human α4β2 [1] (read-out: Human α4β2 Ki) was found to be 3.2 µM. Moreover, the IC50 was determined as 1100 nM at human α4β2 [2] (setting [3]) and 280 nM on human α4β2 [2] (setting [5]). The Emax at human α4β2 [2] (setting [4]) was 96%; on human α4β2 [2] (setting [6]) it was 95%; on Human Ganglion, 95%.
On to `CNC1(C)C2CCC(CC2)C12CCCC2` (stereo not drawn), for which, on human α4β2 [1] (read-out: Human α4β2 Ki), the Ki was 0.3 µM. Further, the IC50 on human α4β2 [2] (setting [5]) was 400 nM. The Emax turned out to be 95% on human α4β2 [2] (setting [6]) and 92% on Human Ganglion.
On to `CNC1(C)C2CCC(C2)C12CCCC2` (stereo not drawn), for which the Ki on human α4β2 [1] (read-out: Human α4β2 Ki) was above 10 µM. Further, the IC50 at human α4β2 [2] (setting [3]) is 1100 nM; at human α4β2 [2] (setting [5]) it was 120 nM. Moreover, the Emax is 99% at human α4β2 [2] (setting [4]), 100% at human α4β2 [2] (setting [6]) and 96% on Human Ganglion.
Turning to `CNC1C2CCC(C2)C12CCC2` (stereo not drawn), the inhibition constant (Ki) at human α4β2 [1] (Human α4β2 Ki) was above 10 µM. Further, the IC50 at human α4β2 [2] (setting [3]) came out at 1000 nM; on human α4β2 [2] (setting [5]), 500 nM. In addition, the Emax at human α4β2 [2] (setting [4]) turned out to be 99%; at human α4β2 [2] (setting [6]), 97%; at Human Ganglion, 97%.
